Assay results as given in patent publication US8796268B2, “Heteroaryls and uses thereof” (Millennium Pharmaceuticals, Inc., priority 2010, dated 2014).
Structures can show the parent of a compound that is named as a salt.

Assays:
Format in all cases: biochemical
Human PI3K alpha = target: T1, Human PI3K alpha (Homo sapiens, UniProt P42336); experiment: Human PI3K alpha enzyme assay (HTRF); details: at a 1.1 μM concentration; read-out: PI3Kα Percent Inhibition
T1 construct: His (N); host or cells: SF9 insect cells (baculovirus)

Human PI3K beta = target: T2, Human PI3K beta (Homo sapiens, UniProt P42338); experiment: Human PI3K beta enzyme assay (HTRF); details: at a 1.1 μM concentration; read-out: PI3β Percent Inhibition
T2 construct: His (N); host or cells: SF9 insect cells (baculovirus)
In short: (§1)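 Compounds were mixed with 25 uM ATP, then with 3.5 uM di-C8 PI(4,5)P2 and His-tagged PI3K isoform (β 5.25 nM, δ 0.75 nM, γ 5 nM) at pH 7.00. After 30 min at room temperature, EDTA stopped the reaction and PIP3 was measured by HTRF over 1 h.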

Human PI3K delta = target: T3, Human PI3K delta (Homo sapiens, UniProt O00329); experiment: Human PI3K delta enzyme assay (HTRF); details: at a 1.0 μM concentration; read-out: PI3Kδ Percent Inhibition
T3 construct: His (N); host or cells: SF9 insect cells (baculovirus)
In short: as §1

Human PI3K gamma = target: T4, Human PI3K gamma (Homo sapiens, UniProt P48736); experiment: Human PI3K gamma enzyme assay (HTRF); details: at a 1.0 μM concentration; read-out: PI3Kγ Percent Inhibition
T4 construct: His (N); host or cells: SF9 insect cells (baculovirus)
In short: as §1

Human VPS34 = target: T5, Human VPS34 (Homo sapiens, UniProt Q8NEB9); experiment: Human VPS34 enzyme assay (Adapta Universal Kinase Assay); details: at a 1.0 μM concentration; read-out: VPS34 Percent Inhibition
T5 construct: GST (with thrombin site, pDEST20-Thrombin) (N); host or cells: SF9 insect cells (baculovirus)
Description: The catalytic subunits of PI3Ks are cloned into either pDEST8(p110 alpha) or pDEST10(p110beta, p110delta, and p110gamma) as N-terminal His tagged fusion proteins using the Gateway system (Invitrogen, catalog#11804-010 for pDEST8 and 11806-015 for pDEST10). The sequences are verified before recombinant protein expression using the Baculovirus Expression System with Gateway® Technology. The accession numbers for the subunits are as follows: • p110 alpha (GB:U79143) • p110beta (GB: S67334) • p110delta (GB: U86453) • p110gamma (GB: X83368) • The regulatory subunits of PI3Ks are cloned into pDEST8 as un-tagged protein using the Gateway system (Catalog#11804-010). The sequences are verified before recombinant protein expression using the Baculovirus Expression System with Gateway® Technology. The accession numbers for the subunits are as following: • p85 alpha (GB: BC030815) • p101(GB: AB028925) • VPS34 (accession number GB:BC033004) is cloned into pDEST20—Thombin as N-terminal GST tagged fusion proteins using the Gateway system (Invitrogen, catalog#11804-013). The sequences are verified before recombinant protein expression using the Baculovirus Expression System with Gateway® Technology.
For expression VPS34 was infected at 1MOI in SF9 cells and harvested 72 hours post infection.
For purification, VPS34 is purified by Glutathione Sepharose 4 Fast Flow (GE Healthcare #17-5132-03) followed by HiTrap Q (GE Healthcare #17-1153-01).
3) VPS34 is assayed using Adapta™ Universal Kinase Assay Kit (Invitrogen).
4) Human VPS34 enzyme assay method
100 nL compounds in DMSO are added to wells of a 384 well microtitre plate (Greiner 780076). At room temperature: 5 ul VPS34 reaction buffer (Invitrogen Assay Buffer Q (diluted 1 in 5 with nanopure water) plus 2 mM DTT and 2 mM MnCl2) containing ATP (20 uM, Promega) and 200 uM PI—PS substrate (Invitrogen PV5122) is added followed immediately by 5 ul VPS34 reaction buffer (as above) containing VPS34 (5 nM, Millennium Protein Sciences Group) and the mixture is incubated with shaking at room temperature for 1 hour. Then 5 ul VPS34 stop-detect mix (as per Invitrogen Adapta Assay kit (PV5009) instructions (contains kinase quench buffer, TR-FRET buffer, Adapta Eu anti-ADP antibody and Alexa Fluor 647 ADP tracer)) is added to quench the reaction. The plates are then incubated for 30 minutes at room temperature with shaking and then read on a BMG PheraStar Plus reader.
For the assay methods described above, test compound percent inhibition, at various concentrations, is calculated relative to control (DMSO and EDTA) treated samples. Compound concentration versus percent inhibition curves are fitted to generate IC50 values. One skilled in the art will appreciate that the values generated either as percentage inhibition at a single concentration or IC50 values are subject to experimental variation.

T3 sequence (O00329 whole entry): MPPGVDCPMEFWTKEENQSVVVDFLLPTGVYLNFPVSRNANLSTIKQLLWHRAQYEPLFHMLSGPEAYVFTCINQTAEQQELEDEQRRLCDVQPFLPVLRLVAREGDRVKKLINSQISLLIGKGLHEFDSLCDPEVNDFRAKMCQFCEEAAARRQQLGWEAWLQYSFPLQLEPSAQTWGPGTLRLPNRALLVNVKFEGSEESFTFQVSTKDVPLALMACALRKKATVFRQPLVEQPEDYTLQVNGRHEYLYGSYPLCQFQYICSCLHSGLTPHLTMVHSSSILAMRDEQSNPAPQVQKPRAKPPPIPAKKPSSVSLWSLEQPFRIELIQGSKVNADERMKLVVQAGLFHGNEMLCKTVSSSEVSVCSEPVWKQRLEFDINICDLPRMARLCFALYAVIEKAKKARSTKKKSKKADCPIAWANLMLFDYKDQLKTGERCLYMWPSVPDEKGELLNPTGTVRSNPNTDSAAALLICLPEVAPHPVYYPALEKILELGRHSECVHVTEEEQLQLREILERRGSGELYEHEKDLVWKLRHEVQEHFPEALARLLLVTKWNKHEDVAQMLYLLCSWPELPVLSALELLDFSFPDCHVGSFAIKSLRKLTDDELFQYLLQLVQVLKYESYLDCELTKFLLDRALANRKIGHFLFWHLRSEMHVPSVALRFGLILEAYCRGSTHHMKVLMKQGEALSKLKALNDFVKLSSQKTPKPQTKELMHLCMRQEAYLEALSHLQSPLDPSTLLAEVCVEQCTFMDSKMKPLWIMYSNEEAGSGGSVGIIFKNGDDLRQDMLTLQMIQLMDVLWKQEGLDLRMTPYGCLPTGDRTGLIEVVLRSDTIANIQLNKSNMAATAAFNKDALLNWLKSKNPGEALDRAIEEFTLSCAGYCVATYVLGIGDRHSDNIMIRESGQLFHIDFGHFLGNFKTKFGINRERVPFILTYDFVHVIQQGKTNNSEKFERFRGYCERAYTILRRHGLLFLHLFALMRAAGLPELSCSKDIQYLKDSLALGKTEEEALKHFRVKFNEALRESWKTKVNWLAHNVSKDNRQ
T3 sequence (P27986 whole entry partner): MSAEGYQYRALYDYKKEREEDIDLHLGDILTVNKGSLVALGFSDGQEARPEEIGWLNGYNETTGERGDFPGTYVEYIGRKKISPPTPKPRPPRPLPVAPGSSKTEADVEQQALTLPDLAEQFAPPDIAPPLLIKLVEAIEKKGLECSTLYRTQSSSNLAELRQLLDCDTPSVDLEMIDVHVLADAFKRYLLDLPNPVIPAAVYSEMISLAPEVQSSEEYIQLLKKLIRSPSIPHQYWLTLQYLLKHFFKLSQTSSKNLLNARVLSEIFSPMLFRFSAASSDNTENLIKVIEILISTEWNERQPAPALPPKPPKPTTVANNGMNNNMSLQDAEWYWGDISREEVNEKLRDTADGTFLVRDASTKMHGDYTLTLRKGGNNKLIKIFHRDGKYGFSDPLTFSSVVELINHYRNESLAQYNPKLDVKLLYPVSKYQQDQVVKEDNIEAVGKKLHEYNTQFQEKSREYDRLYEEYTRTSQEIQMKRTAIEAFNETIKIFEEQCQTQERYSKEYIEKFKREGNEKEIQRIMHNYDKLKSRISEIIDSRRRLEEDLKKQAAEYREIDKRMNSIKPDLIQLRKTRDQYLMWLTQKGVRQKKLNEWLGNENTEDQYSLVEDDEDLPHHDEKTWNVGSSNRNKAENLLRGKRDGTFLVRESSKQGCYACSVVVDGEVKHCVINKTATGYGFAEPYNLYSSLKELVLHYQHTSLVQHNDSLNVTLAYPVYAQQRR
T5 sequence (Q8NEB9 whole entry): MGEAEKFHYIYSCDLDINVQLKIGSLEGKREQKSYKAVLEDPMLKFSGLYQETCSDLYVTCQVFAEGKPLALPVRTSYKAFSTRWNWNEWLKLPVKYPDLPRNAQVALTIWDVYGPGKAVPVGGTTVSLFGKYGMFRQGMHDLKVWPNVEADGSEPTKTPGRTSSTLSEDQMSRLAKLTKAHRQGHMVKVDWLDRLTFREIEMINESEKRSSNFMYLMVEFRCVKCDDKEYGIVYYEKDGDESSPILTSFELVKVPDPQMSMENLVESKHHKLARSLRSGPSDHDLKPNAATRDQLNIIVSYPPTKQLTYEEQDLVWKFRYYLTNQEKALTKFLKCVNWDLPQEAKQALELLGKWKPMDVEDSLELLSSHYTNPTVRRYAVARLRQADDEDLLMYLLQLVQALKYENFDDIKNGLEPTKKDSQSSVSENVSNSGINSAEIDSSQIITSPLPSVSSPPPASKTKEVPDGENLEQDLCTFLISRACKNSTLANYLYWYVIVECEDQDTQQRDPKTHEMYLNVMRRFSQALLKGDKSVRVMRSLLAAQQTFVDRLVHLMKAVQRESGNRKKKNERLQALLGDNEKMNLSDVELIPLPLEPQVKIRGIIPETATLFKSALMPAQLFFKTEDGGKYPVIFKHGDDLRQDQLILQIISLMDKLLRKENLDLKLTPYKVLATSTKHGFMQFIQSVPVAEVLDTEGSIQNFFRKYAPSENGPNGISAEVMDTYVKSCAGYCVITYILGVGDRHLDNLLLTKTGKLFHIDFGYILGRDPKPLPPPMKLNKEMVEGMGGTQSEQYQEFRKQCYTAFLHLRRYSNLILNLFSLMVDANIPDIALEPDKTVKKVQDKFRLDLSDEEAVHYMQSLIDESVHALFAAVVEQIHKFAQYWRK
T2 sequence (P42338 whole entry): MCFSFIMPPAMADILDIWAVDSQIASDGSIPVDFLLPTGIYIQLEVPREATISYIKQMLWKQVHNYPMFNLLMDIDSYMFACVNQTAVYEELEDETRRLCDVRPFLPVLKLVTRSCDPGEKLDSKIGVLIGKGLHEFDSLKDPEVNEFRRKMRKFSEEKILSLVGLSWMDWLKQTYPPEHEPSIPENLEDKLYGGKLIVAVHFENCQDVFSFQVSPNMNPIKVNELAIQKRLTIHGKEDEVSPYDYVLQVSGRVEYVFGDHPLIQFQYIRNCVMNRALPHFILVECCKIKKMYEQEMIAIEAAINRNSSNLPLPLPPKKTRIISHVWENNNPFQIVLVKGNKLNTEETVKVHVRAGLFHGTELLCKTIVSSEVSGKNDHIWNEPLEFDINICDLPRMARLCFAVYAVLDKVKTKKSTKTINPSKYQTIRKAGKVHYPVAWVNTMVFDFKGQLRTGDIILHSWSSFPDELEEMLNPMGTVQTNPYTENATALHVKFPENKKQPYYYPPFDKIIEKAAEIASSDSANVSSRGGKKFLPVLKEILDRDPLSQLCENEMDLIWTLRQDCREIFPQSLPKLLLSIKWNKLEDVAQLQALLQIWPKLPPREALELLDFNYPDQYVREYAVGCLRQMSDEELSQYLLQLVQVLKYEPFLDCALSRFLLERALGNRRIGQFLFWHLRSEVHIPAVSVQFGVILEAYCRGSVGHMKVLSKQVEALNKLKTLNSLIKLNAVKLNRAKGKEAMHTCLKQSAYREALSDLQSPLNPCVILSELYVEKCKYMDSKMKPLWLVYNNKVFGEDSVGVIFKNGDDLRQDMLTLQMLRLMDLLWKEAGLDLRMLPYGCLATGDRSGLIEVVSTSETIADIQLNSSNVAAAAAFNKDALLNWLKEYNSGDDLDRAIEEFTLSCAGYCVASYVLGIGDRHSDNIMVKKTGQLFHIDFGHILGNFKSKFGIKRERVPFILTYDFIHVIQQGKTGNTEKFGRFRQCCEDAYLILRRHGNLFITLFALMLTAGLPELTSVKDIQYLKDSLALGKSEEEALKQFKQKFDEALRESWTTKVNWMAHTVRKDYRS
T2 sequence (P27986 whole entry partner): as the sequence (P27986 whole entry partner) above
T1 sequence (P42336 whole entry): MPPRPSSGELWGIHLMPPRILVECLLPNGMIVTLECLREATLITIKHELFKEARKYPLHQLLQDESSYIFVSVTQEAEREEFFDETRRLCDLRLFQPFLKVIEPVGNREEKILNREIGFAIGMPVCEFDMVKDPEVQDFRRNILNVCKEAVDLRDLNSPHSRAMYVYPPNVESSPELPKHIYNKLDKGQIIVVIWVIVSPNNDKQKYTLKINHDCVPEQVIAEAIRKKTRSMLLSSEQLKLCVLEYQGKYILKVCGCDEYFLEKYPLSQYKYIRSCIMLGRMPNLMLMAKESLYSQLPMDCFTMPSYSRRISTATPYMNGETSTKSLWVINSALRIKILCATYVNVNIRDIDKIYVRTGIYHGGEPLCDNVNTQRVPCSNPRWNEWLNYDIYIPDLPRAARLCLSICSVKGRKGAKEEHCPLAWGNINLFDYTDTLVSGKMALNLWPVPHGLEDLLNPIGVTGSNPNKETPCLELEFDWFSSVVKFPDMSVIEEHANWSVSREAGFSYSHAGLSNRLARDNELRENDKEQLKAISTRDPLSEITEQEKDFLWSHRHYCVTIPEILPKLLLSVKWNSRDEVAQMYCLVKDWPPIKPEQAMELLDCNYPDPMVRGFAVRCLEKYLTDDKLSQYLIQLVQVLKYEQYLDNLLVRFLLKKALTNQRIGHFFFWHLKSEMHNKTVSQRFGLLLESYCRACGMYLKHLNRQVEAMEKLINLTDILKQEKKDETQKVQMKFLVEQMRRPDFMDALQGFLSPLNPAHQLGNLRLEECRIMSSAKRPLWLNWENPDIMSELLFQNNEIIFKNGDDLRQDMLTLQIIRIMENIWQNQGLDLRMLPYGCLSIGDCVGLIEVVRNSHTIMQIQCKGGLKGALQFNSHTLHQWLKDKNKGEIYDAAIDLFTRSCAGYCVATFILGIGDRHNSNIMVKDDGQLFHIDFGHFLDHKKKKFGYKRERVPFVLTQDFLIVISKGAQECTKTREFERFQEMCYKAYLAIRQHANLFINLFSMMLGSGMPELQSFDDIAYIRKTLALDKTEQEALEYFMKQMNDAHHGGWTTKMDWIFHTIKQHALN
T1 sequence (P27986 whole entry partner): as the sequence (P27986 whole entry partner) above

Row | SMILES | inhibition at 1.1 µM (Human PI3K alpha) [%] | inhibition at 1.1 µM (Human PI3K beta) [%] | inhibition at 1 µM (Human PI3K delta) [%] | inhibition at 1 µM (Human PI3K gamma) [%] | inhibition at 1 µM (Human VPS34) [%]
1 | N#Cc1ccc(Cc2nc(N3CCOCC3)sc2C(=O)O)cc1 [Compound 93] | 9 | 80 | 46 | 9.5 | 19.2
2 | N#Cc1c(N2CCOCC2)sc(C(=O)O)c1Cc1ccc(Cl)c(F)c1 [Compound 94, 3-(4-chloro-3-fluorobenzyl)-4-cyano-5-morpholin-4-ylthiophene-2-carboxylic acid] | 58 | 97 | 102 | 52.6 | 30.6
3 | N#Cc1c(C2=CCOCC2)sc(C(=O)O)c1Cc1ccc(Cl)cc1 [Compound 95, 3-(4-chlorobenzyl)-4-cyano-5-(3,6-dihydro-2H-pyran-4-yl)thiophene-2-carboxylic acid] | 68 | 101 | 86.1 | 23.9 | 167
4 | N#Cc1c(N2CCOCC2)sc(C(=O)O)c1Cc1ccc(Cl)cc1Cl [Compound 96] | 58 | 109 | 96 | 36.2 | 47.8
5 | N#Cc1c(N2CCOCC2)sc(C(=O)O)c1Cc1ccc(F)cc1 [Compound 97] | 53 | 101 | 89.8 | 17.8 | 45
6 | O=C(O)c1sc(N2CCOCC2)nc1Cc1ccc2ccccc2c1 [Compound 98] | 58 | 111 | 108 | 67.6 | 68.9
7 | O=C(O)c1sc(N2CCOCC2)nc1Cc1ccc(F)cc1Cl [Compound 99] | 12 | 72 | 55.4 | 6.4 | 46.7
8 | O=C(O)c1sc(C2=CCOCC2)nc1Cc1ccc(Cl)cc1 [Compound 100, 4-(4-chlorobenzyl)-2-(3,6-dihydro-2H-pyran-4-yl)-1,3-thiazole-5-carboxylic acid] | 20 | 98 | 65.5 | 13.2 | 36.6
9 | COc1ccc(Cc2nc(N3CCOCC3)sc2C(=O)O)cc1 [Compound 103] | 2 | 71 | 38.6 | 6.4 | 7.2
10 | O=C(O)c1sc(N2CCOCC2)nc1Cc1ccc(Cl)cc1Cl [Compound 104] | 26 | 109 | 93 | 28.8 | 63.2
11 | COc1ccc(Cc2c(C(=O)O)sc(N3CCOCC3)c2C#N)cc1 [Compound 105] | 21 | 98 | 51.2 | 9.8 | 22.6
12 | N#Cc1c(N2CCOCC2)sc(C(=O)O)c1Cc1ccc(Br)cc1 [Compound 106] | 58 | 103 | 88.8 | 51.8 | 34.4
13 | COc1ccc(Cc2c(C(=O)O)sc(N3CCOCC3)c2C#N)cc1Cl [Compound 108] | 44 | 100 | 99.6 | 38.1 | 62.4

Other lines, results leading:

Row | inhibition at 1.1 µM (Human PI3K alpha) [%] | inhibition at 1.1 µM (Human PI3K beta) [%] | inhibition at 1 µM (Human PI3K delta) [%] | inhibition at 1 µM (Human PI3K gamma) [%] | inhibition at 1 µM (Human VPS34) [%] | SMILES
14 | 6 | 76 | 35.4 | 3.9 | 24 | O=C(O)c1sc(N2CCOCC2)nc1Cc1ccc(OC(F)(F)F)cc1 [Compound 109]
15 | 7 | 77 | 60.5 | 6.9 | 46.8 | O=C(O)c1sc(N2CCOCC2)nc1Cc1ccc(C(F)(F)F)cc1 [Compound 111]
16 | 95 | 110 | 114 | 69 | 37.8 | N#Cc1c(N2CCOCC2)sc(C(=O)O)c1Cc1ccc2ccccc2c1 [Compound 112]
17 | 25 | 100 | 78.8 | 32.5 | 18.1 | N#Cc1c(N2CCOCC2)sc(C(=O)O)c1C(N)c1ccc(Cl)cc1 (stereo not drawn) [Compound 113, 3-[amino(4-chlorophenyl)methyl]-4-cyano-5-(morpholin-4-yl)thiophene-2-carboxylic acid hydrochloride]
18 | 40 | 106 | 113 | 56.9 | 131 | O=C(O)c1sc(N2CCOCC2)nc1Cc1ccc(Cl)c(Cl)c1 [Compound 114]
19 | 45 | 97 | 63 | 12 | 39.7 | N#Cc1ccc(Cc2c(C(=O)O)sc(N3CCOCC3)c2C#N)cc1 [Compound 115]
20 | 46 | 98 | 83 | 36.7 | 54.2 | N#Cc1c(N2CCOCC2)sc(C(=O)O)c1Cc1ccc(Cl)cc1 [Compound 116]
21 | 48 | 94 | 78.5 | 14.7 | 28.6 | COc1ccc(Cc2c(C(=O)O)sc(N3CCOCC3)c2C#N)c(Cl)c1 [Compound 117]
22 | 28 | 104 | 89.3 | 27.5 | 68.2 | O=C(O)c1sc(N2CCOCC2)nc1Cc1ccc(Cl)c(F)c1 [Compound 118, 4-(4-chloro-3-fluorobenzyl)-2-morpholin-4-yl-1,3-thiazole-5-carboxylic acid]
23 | 9 | 88 | 62.6 | 7.6 | 19.5 | O=C(O)c1sc(N2CCOCC2)nc1Cc1ccc(F)cc1 [Compound 119]
24 | 18 | 97 | 77 | 11 | 38.3 | COc1ccc(Cc2nc(N3CCOCC3)sc2C(=O)O)c(Cl)c1 [Compound 120]
25 | 11 | 59 | 77.3 | 7.3 | 64.8 | CC(c1ccc(Cl)cc1)c1nc(N2CCOCC2)sc1C(=O)O (stereo not drawn) [Compound 121, 4-[1-(4-chlorophenyl)ethyl]-2-(morpholin-4-yl)-1,3-thiazole-5-carboxylic acid]
26 | 49 | 106 | 96.2 | 49.6 | 55.2 | COc1cc(Cc2c(C(=O)O)sc(N3CCOCC3)c2C#N)ccc1Cl [Compound 122]
27 | 64 | 105 | 96.8 | 36.6 | 45.1 | N#Cc1c(N2CCOCC2)sc(C(=O)O)c1Cc1ccc(Cl)cc1F [Compound 123]
